Results from US5393744A, “Glucosyl phosphotriesters of thymidine” (Institut Pasteur, priority 1988, dated 1995).
Where two headings read alike, the source gives them in different places.

Assays:
human T lymphocytes = experiment: Cytotoxicity of the products for human T lymphocytes; assay type: cell-based
Method: (§1) Each product was dissolved in DMSO at a concentration of 10^-3 M (stock solution), then in the culture medium immediately before use. The solution thus obtained was sterilized by filtration on a 0.22μ Millipore, then successive dilutions were made in the culture medium.
The cultures of human T lymphocytes are maintained in the medium RPMI 1640 containing 10% fetal calf serum (Seromeal), 1% of glummine (Gibco), 1% of antibiotics (PSN, Gibco), 10% of interleukin II (Biotest), 2 μg/ml of polybrene (Sigma) and a 1/2500 dilution of α-human semm-interferon. This medium is called complete medium.
The cytotoxicity of the products was studied on human T lymphocytes obtained from peripheral blood of a sero-negative donor. Prior to the treatment, these lymphocytes are stimulated by phytohemagglutinin p (pHAp) (Difco) for 3 days.
a) Study of the cytotoxicity of the products for the T cells.
10^6 lymphocytes stimulated by pHAp were treated for 10 days by increasing doses of the product (10^-5 M; 5×10^-6 M; 10^-6 M). The product was added at each cell passage carried out every 3 or 4 days. At each passage, the cells were counted after staining with trypan blue then resuspended at 10^6 cells per ml in the complete medium containing or not increasing doses of the product. This experiment was carried out in a plate with 24 wells (Munc).

HIV-1 virus [1] = experiment: Action of the products on the cytopathogenic effect of the HIV-1 virus in MT4 cells; assay type: cell-based, HIV-1 virus (LAV strain); settings: for minimal effective concentration: Human immunodeficiency virus 1, MT4, 168 h
Method: as §1
The line of MT4 cells is cultivated at a concentration of 3×10^5 cells/ml in a RPM1640 medium containing 10% of fetal calf serum, 1% of antibiotics and 1% of glummine.
The action of the products on the cytopathogenic effect of the HIV-1 virus was studied with the aid of the line of MT4 cells. This line is a line of human T cells transformed by the HTLV-1 virus. These cells are particularly sensitive to the HIV-1 virus since 6 to 7 days after superinfection by tiny quantities of HIV-1 virus, they show a considerable cytopathogenic effect leading to the death of 10 to 80% of the cells. The cytopathogenic effect is directly correlated with the infection of the cells by the virus, with its intracellular replication and with the expression of the viral antigens by the cells. An inhibition of this effect thus corresponds to an inhibition of the multiplication of the HIV-1 virus.
It is a question of supernatants of lymphoblastoid T cells (CEM line) infected by the HIV-1 virus (LAV strain). The activity of the undiluted viral preparation used for the human lymphocytes was 20000 cpm/ml.
d) Action of the products on the cytopathogenic effect of the HIV-1 virus in the case of the MT4 cells. Study of the treatment after viral absorption.
The MT4 cells were infected by 100 μl of HIV-1 virus for 3.10^5 cells in a volume of 1 ml. […]
At day +3, the cell suspensions were restored to 3.10^5 cells/ml after dilution with fresh medium. The product was added at the corresponding doses.
At day +7, the cytopathogenic effect was evaluated with the microscope after staining with trypan blue.

HIV-1 virus [2] = experiment: Infection of activated lymphocytes by the lysates of infected macrophages (co-culture, reverse transcriptase activity); assay type: cell-based
Method: The drugs 6651, AZT, 6714 and ddT were diluted in DMSO.
The virus HIV-1 utilized is derived from a culture supernatant of CEM-LAV 1 cells; these latter are maintained by the addition at each passage (every 3 or 4 days) of uninfected CEM cells. The titre of the virus in the clarified culture supernatant is higher than 10^6 cpm/ml in reverse transcriptase activity and 10^3 infectious units/ml on lymphocytes of sero-negative donors.
The lymphocytes were isolated from the peripheral blood of sero-negative donors on a Ficoll^R gradient (MSL, Eurobio). The lymphocytes thus obtained were stimulated with the phytohemaglutinin p(PHA-p) for 3 days before their utilization.
The lymphocytes are cultivated in RPMI 1640 medium, supplemented with 10% of fetal calf serum, 10% of interleukin 2, 2 μg/ml of polybrene, 1% of glutamine, 1% of antibiotics.
The macrophages were obtained from a deleucocytation pocket. The mononucleated cells were separated on a Ficoll^R gradient. The cells were adjusted to 50.10^6 cells/ml in the RPMI 1640 medium (MBA) containing 20% fetal calf serum (Flow), 10 mM Hepes (Sigma), 1% of PSN and 1% of glutamine (Gibco). After 1 h of incubation at 4° C. with gentle shaking, the macrophages agglutinate among themselves. The agglutinated macrophages are sedimented for 15 mn at 4° C. The supernatant containing an enrichment in lymphocytes was removed and the pellet enriched in macrophages was diluted to 5.10^6 cells/ml in the medium previously described. The cell suspension was then placed in Petri dishes of 60 mm diameter and placed at 37° C. for 1 h 30. The unattached cells are removed and the washed cell carpet was then detached with a scraper. The cells thus recovered were used directly for the study.
For this study, the production of HIV-1 virus by infected macrophages in the presence or absence of the drugs 6714 or ddT and 6651 or AZT were monitored either in continuous culture for at least 30 days or after lysis of the macrophages at day +14 and infection of lymphocytes by this lysate.
The quantity of cells placed in culture and the conditions of infection are identical with those previously described.
At day 14 after infection, the macrophages were lysed by two successive freezings to -20° C. and thawings at 37° C. The lysate recovered was then utilized as inoculum to infect 3.10^6 activated lymphocytes derived from a sero-negative donor. After 1 h of absorption, the lymphocytes were adjusted to 10^6 cells per ml and the drugs were added at the concentrations corresponding to those of the lysate.
The lymphocytes were subcultured every 3 or 4 days and an assay of the reverse transcriptase was carried out starting from the culture supernatant at each passage.
3) Measurement of the reverse transcriptase activity
The reverse transcriptase activity is assayed starting from 1 ml of culture supernatant concentrated 100 times by ultra-centrifugation for 5 mn at 95.000 rpm (Rotor TL 100^R Beckman).
The pellet is resuspended in 10 μl of NTE Triton^R ×100 0.1%.
After 1 h at 37° C., the acid-insoluble products are precipitated by 20% trichloroacetic acid, filtered onto 0.45μ Millipore^R and the B radioactivity is measured with the aid of a Kontron scintillation counter.

SMILES | effect on the growth of T cells (human T lymphocytes; treatment of 10 days, at the doses used (FIG. 1)) | Cytopathogenic Effect at Day +7 (HIV-1 virus [1]; 5 × 10^-6 M, Experiment No. 1) | Cytopathogenic Effect at Day +7 (HIV-1 virus [1]; 5 × 10^-6 M, Experiment No. 2) | Cytopathogenic Effect at Day +7 (HIV-1 virus [1]; 5 × 10^-7 M, Experiment No. 1) | Cytopathogenic Effect at Day +7 (HIV-1 virus [1]; 5 × 10^-7 M, Experiment No. 2) | Cytopathogenic Effect at Day +7 (HIV-1 virus [1]; 10^-5 M, Experiment No. 1) | Cytopathogenic Effect at Day +7 (HIV-1 virus [1]; 10^-5 M, Experiment No. 2) | Cytopathogenic Effect at Day +7 (HIV-1 virus [1]; 10^-6 M, Experiment No. 1) | Cytopathogenic Effect at Day +7 (HIV-1 virus [1]; 10^-6 M, Experiment No. 2) | minimal effective concentration (HIV-1 virus [1]; first experiment, MT4 cells, read-out: concentration at which the product inhibits the cytopathogenic effect) [µM] | minimal effective concentration (HIV-1 virus [1]; second experiment, MT4 cells, read-out: concentration at which the product inhibits the cytopathogenic effect) [µM] | viral production on the lymphocytes with the lysates of treated macrophages (HIV-1 virus [2]; 10^-5 M and 10^-6 M (FIG. 4c)) | multiplication of the HIV-1 virus at the interior of the macrophage (HIV-1 virus [2]; 10^-5 M and 10^-6 M, same result as AZT (no multiplication)) | multiplication of the HIV-1 virus in the macrophages (HIV-1 virus [2]; 10^-7 M) | viral production on the lymphocytes with the lysates of treated macrophages (HIV-1 virus [2]; 10^-7 M (FIG. 4c)) | effect on cell multiplication (human T lymphocytes; same doses, 3 days) | minimal effective concentration (HIV-1 virus [1]; read-out: concentration at which the product inhibits the cytopathogenic potency of the virus) [µM] | viral production by activated lymphocytes with lysates of infected treated macrophages (general statement) (HIV-1 virus [2]; lysate at day 14) | viral production by activated lymphocytes, compared to untreated lysate (HIV-1 virus [2]; whatever the concentration tested (5.10^-5 M, 10^-5 M)) | multiplication of the HIV-1 virus in the macrophages (HIV-1 virus [2]; whatever the concentration tested, 5.10^-6 M or 10^-5 M)
CCCCCCCCCCCCCCCCOP(=O)(OC[C@H]1OC(O)[C@H](O)[C@@H](O)[C@@H]1O)OC[C@H]1O[C@@H](n2cc(C)c(=O)[nH]c2=O)C[C@@H]1N=[N+]=[N-] (some centres unmarked) [compound 6651, 6-glucosyl hexadecyl 5'-(3'-azido) thymidinyl phosphate] | without significant effect on the growth of T cells | - | + (100% death of the cells at day +7) | + (100% death of the cells at day +7) | + (100% death of the cells at day +7) | - | - | - | + (100% death of the cells at day +7) | 1 | 10 | no viral production is obtained on the lymphocytes | this same result is obtained | there is multiplication of the HIV-1 virus in the macrophages, but the escape of the virus seems to be blocked | A low viral production is observed |  |  |  |  | 
Cc1cn([C@H]2CC[C@@H](COP(=O)(O)OC[C@H]3OC(O)[C@H](O)[C@@H](O)[C@@H]3O)O2)c(=O)[nH]c1=O (some centres unmarked) [compound 6714, 6-glucosyl 5'-(3'-deoxy)-thymidinyl phosphate] |  |  | + (100% death of the cells at day +7) |  |  |  | - |  | + (100% death of the cells at day +7) |  |  |  |  |  |  | no effect is observed on cell multiplication | 10 | make it possible to obtain a vital production by activated lymphocytes | comparable to the untreated lysate | there is multiplication of the HIV-1 virus in the macrophages, but the escape of the virus seems to be blocked
